What was measured:
human Nav1.1 = biological target: T1, human Nav1.1 (Homo sapiens, UniProt P35498); assay: Amplification of Nav1.1-derived voltage-dependent sodium current (Nav1.1 current), cell line stably expressing human Nav1.1, automated patch clamp; assay type: cell-based
T1 construct: host or cells: HEK293
Procedure, shortened: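 Amplification rate (%) is 100 × post-compound/pre-compound Nav1.1 peak current or AUC, minus 100. Ramp-evoked sodium currents were recorded by automated patch clamp in a human Nav1.1 HEK293 stable line, restricted to cells exceeding 500 pA, with compounds added in extracellular solution containing 1% DMSO.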

human Nav1.5 = biological target: T2, human Nav1.5 (Homo sapiens, UniProt Q14524); assay: Amplification of Nav1.5-derived voltage-dependent sodium current (Nav1.5 current), cell line stably expressing human Nav1.5, automated patch clamp; assay type: cell-based
T2 construct: expressed in transfected cells; host or cells: CHO-K1 (T-REx System, ThermoFisher Scientific)
T2 sequence (Q14524 1-2015 isoform Q14524-2): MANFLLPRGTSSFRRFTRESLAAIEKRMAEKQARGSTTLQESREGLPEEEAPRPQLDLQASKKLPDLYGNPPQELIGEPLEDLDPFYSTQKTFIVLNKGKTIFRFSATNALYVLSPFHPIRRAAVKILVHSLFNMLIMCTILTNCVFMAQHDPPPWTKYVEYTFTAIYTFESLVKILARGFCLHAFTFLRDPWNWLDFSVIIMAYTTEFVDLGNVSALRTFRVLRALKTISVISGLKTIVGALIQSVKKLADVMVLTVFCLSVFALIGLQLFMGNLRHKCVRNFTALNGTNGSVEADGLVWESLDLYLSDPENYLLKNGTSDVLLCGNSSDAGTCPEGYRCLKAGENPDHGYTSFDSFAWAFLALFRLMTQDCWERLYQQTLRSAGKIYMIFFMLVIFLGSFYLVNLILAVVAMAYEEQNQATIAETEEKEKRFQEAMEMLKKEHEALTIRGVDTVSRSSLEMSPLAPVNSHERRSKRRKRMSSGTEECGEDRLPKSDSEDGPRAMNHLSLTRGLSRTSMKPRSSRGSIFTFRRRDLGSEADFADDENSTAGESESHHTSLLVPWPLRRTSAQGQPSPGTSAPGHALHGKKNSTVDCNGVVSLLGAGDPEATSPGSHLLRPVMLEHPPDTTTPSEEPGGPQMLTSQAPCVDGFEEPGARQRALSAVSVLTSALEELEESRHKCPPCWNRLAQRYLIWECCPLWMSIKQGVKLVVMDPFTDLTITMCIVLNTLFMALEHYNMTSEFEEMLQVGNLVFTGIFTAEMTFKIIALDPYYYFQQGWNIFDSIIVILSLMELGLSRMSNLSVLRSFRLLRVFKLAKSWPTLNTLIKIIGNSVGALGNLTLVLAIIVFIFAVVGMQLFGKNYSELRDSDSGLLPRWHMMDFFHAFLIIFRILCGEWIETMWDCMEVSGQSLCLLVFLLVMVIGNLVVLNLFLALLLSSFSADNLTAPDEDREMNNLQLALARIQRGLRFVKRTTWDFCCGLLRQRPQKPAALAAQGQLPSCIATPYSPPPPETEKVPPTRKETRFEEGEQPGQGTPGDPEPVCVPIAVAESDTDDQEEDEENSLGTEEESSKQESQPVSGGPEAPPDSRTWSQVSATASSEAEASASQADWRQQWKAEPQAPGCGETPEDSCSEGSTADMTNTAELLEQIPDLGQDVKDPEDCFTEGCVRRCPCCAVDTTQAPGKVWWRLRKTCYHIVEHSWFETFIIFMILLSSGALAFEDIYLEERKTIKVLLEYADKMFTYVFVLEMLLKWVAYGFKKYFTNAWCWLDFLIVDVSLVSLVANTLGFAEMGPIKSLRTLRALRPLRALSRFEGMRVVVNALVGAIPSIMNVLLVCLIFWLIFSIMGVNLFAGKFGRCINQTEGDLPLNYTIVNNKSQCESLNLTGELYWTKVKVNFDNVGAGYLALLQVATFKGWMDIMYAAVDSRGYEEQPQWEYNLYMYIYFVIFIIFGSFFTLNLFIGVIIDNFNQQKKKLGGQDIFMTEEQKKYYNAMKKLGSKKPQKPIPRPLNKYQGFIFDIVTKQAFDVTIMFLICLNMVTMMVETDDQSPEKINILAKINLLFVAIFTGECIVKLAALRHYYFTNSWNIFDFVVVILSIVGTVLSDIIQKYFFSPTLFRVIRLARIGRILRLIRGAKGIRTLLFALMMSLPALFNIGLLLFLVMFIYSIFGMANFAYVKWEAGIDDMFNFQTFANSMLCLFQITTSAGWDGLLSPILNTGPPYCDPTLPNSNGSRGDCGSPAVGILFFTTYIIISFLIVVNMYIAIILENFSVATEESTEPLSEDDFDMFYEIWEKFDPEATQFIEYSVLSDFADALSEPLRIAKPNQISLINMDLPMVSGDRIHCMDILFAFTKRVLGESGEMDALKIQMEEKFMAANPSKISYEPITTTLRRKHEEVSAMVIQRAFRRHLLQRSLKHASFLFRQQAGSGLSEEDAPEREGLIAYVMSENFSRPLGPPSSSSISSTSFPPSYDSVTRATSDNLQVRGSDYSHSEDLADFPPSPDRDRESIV
Method: Test 2: Evaluation of the Amplification in Nav1.5-Derived Voltage-Dependent Sodium Current (Nav1.5 Current) by Using a Cell Line Stably Expressing Human Nav1.5
A CHO-K1 cell line (Chinese hamster ovary) stably expressing human Nav1.5 (Gene Bank Accession No: P000326.2) was obtained by using purchased T-Rex System (ThermoFisher Scientific, USA), and used for the present test. The effect of test compounds on the amplification of Nav1.5 current was evaluated by using a cell line stably expressing human Nav1.5 and HTS automated patch clamp system, similarly in the method using Nav1.1. In other words, test compounds were added in an extracellular fluid which contained 1% DMSO and 500 nmol/L Tetrodotoxin (TTX), and evaluated as a change of the peak value of Nav1.5 current and the area under the curve (AUC). The induction and the measurement of Nav1.5 current, the pharmacologic effect on Nav1.5 current, and a method for pharmacological evaluation were carried out by the same method as in Nav1.1.

[1] = compound 1 μmol/L, HEK293 stably expressing human Nav1.1, read-out: Nav1.1 current amplification rate (%)
[2] = compound 1 μmol/L, CHO-K1 stably expressing human Nav1.5, read-out: Nav1.5 current amplification rate (%)
[3] = 10 μmol/L compound, change of the area under the curve of Nav1.1 current (Test Result 1), read-out: Nav1.1 current amplification rate (%)
[4] = 10 μmol/L compound, change of the area under the curve of Nav1.5 current (Test Result 1), read-out: Nav1.5 current amplification rate (%)
[5] = compound 3 μmol/L, HEK293 stably expressing human Nav1.1
[6] = compound 3 μmol/L, CHO-K1 stably expressing human Nav1.5
[7] = 10 μmol/L compound, change of the area under the curve of Nav1.1 current (Test Result 1)
[8] = 10 μmol/L compound, change of the area under the curve of Nav1.5 current (Test Result 1)
[9] = compound 1 μmol/L, HEK293 stably expressing human Nav1.1
[10] = compound 1 μmol/L, CHO-K1 stably expressing human Nav1.5

## Cc1cc(=O)n(CC(=O)Nc2ccn3ncnc3c2)nc1C1=CCC(C)CC1 (centres unmarked) [Example 502]
Human Nav1.1; [1]
  activation at 1 µM: 49%
Human Nav1.5; [2]
  activation at 1 µM: 7%

## O=C(Cn1nc(N2CCC3(CCCC3)C2)ccc1=O)Nc1ccc2ocnc2c1 [Example 122]
Human Nav1.1; [3]
  activation at 10 µM: 173%
Human Nav1.5; [4]
  activation at 10 µM: 18%

## CC1CC=C(c2ccc(=O)n(CC(=O)N3CCN(c4cncc(OC(F)F)c4)CC3)n2)CC1 (centres unmarked) [Example 405]
Human Nav1.1; [5]
  Nav1.1 current amplification rate (%): 268%
Human Nav1.5; [6]
  Nav1.5 current amplification rate (%): 14%

## O=C(Cn1nc(N2CCCC3(CCC3)C2)ccc1=O)Nc1ccc2ocnc2c1 [Example 130]
Human Nav1.1; [3]
  activation at 10 µM: 181%
Human Nav1.5; [4]
  activation at 10 µM: 3%

## COc1cc(=O)n(CC(=O)N2CCc3c(N4CCOCC4)cccc32)nc1C1=CCC(C)(C)CC1 [Example 470]
Human Nav1.1; [7]
  Nav1.1 current amplification rate (%): 522%
Human Nav1.5; [8]
  Nav1.5 current amplification rate (%): 131%

## O=C(Cn1nc(C2=CCCCC2)ccc1=O)Nc1ccn2ccnc2c1 [Example 458]
Human Nav1.1; [7]
  Nav1.1 current amplification rate (%): 24%
Human Nav1.5; [8]
  Nav1.5 current amplification rate (%): 0%

## C[C@H]1CC=C(c2ccc(=O)n(CC(=O)Nc3ccc4ncnn4c3)n2)CC1 [Example 540, 2-{3-[(4R)-4-methylcyclohex-1-en-1-yl]-6-oxopyridazin-1(6H)-yl}-N-([1,2,4]triazolo[1,5-a]pyridin-6-yl)acetamide]
Human Nav1.1; [1]
  activation at 1 µM: 112%
Human Nav1.5; [2]
  activation at 1 µM: 15%

## CC1CC=C(c2ccc(=O)n(CC(=O)N3CCC(c4ccccn4)CC3)n2)CC1 (racemic) [Example 260]
Human Nav1.1; [7]
  Nav1.1 current amplification rate (%): 13%
Human Nav1.5; [8]
  Nav1.5 current amplification rate (%): −6%

## O=C(Cn1nc(C2=CCC3(CC2)CC3)ccc1=O)Nc1ccn2ncnc2c1 [Example 512, 2-[6-oxo-3-(spiro[2.5]oct-5-en-6-yl)pyridazin-1(6H)-yl]-N-([1,2,4]triazolo[1,5-a]pyridin-7-yl)acetamide]
Human Nav1.1; [1]
  activation at 1 µM: 103%
Human Nav1.5; [2]
  activation at 1 µM: 34%

## COc1cc(N2CCC3(CCC3)C2)nn(CC(=O)N2CCc3c(N4CCOCC4)cccc32)c1=O [Example 227]
Human Nav1.1; compound 3 μmol/L, HEK293 stably expressing human Nav1.1, read-out: Nav1.1 current amplification rate (%)
  activation at 3 µM: 303%
Human Nav1.5; compound 3 μmol/L, CHO-K1 stably expressing human Nav1.5, read-out: Nav1.5 current amplification rate (%)
  activation at 3 µM: 17%

## CC1CCN(c2ccc(=O)n(CC(=O)Nc3cccc(-c4ncco4)c3)n2)CC1 [Example 78]
Human Nav1.1; [7]
  Nav1.1 current amplification rate (%): 78%
Human Nav1.5; [8]
  Nav1.5 current amplification rate (%): 4%

## CC1CC=C(c2ccc(=O)n(CC(=O)N3CCN(c4ccncc4)CC3)n2)CC1 (racemic) [Example 261]
Human Nav1.1; [7]
  Nav1.1 current amplification rate (%): 60%
Human Nav1.5; [8]
  Nav1.5 current amplification rate (%): 1%

## O=C(Cn1nc(C2=CCCCC2)ccc1=O)N1CCc2c(Cn3ccnc3)cccc21 [Example 515]
Human Nav1.1; [1]
  activation at 1 µM: 255%
Human Nav1.5; [2]
  activation at 1 µM: 287%

## CC1CC=C(c2ccc(=O)n(CC(=O)N3CCc4c(C5=CCN(C)C5)cccc43)n2)CC1 (racemic) [Example 267]
Human Nav1.1; [5]
  Nav1.1 current amplification rate (%): 231%
Human Nav1.5; [6]
  Nav1.5 current amplification rate (%): 79%

## CC1CCN(c2ccc(=O)n(CC(=O)Nc3cccc(-n4ccnc4)c3)n2)CC1 [Example 67]
Human Nav1.1; [7]
  Nav1.1 current amplification rate (%): 177%
Human Nav1.5; [8]
  Nav1.5 current amplification rate (%): 18%

## CC1CCN(c2ccc(=O)n(CC(=O)Nc3cccc(C#N)c3)n2)CC1 [Example 55]
Human Nav1.1; [7]
  Nav1.1 current amplification rate (%): 111%
Human Nav1.5; [8]
  Nav1.5 current amplification rate (%): 27%

## O=C(Cn1nc(N2CCC3(CCC3)CC2)ccc1=O)Nc1ccc2scnc2c1 [Example 127]
Human Nav1.1; [3]
  activation at 10 µM: 229%
Human Nav1.5; [4]
  activation at 10 µM: 58%

## CC1CC=C(c2ccc(=O)n(CC(=O)Nc3ccc4nccnc4c3)n2)CC1 (racemic) [Example 354]
Human Nav1.1; [9]
  Nav1.1 current amplification rate (%): 123%
Human Nav1.5; [10]
  Nav1.5 current amplification rate (%): 27%

## O=C(Cn1nc(N2CCC3(CCC3)CC2)ccc1=O)N1CCc2cnccc21 [Example 185]
Human Nav1.1; [3]
  activation at 10 µM: 22%
Human Nav1.5; [4]
  activation at 10 µM: 2%

## Cc1ccc(-c2ccc(=O)n(CC(=O)N3CCc4c(C5CN(C6COC6)C5)cccc43)n2)cc1 [Example 516]
Human Nav1.1; [1]
  activation at 1 µM: 130%
Human Nav1.5; [2]
  activation at 1 µM: 13%

## CC1CCN(c2ccc(=O)n(CC(=O)Nc3ccc(C(F)(F)F)nc3)n2)CC1 [Example 59]
Human Nav1.1; [7]
  Nav1.1 current amplification rate (%): 180%
Human Nav1.5; [8]
  Nav1.5 current amplification rate (%): 56%

## CC1CC=C(c2ccc(=O)n(CC(=O)Nc3ccn4nncc4c3)n2)CC1 (racemic) [Example 342]
Human Nav1.1; [9]
  Nav1.1 current amplification rate (%): 109%
Human Nav1.5; [10]
  Nav1.5 current amplification rate (%): 52%

Source: patent US20220347175A1, “PYRIDAZINONE DERIVATIVE” (Sumitomo Dainippon Pharma Co., Ltd., priority 2018, published 2022)
